The record followed here is paper PMC10146186, “Modulation of the Cytotoxic Properties of Pd(II) Complexes Based on Functionalized Carboxamides Featuring Labile Phosphoryl Coordination Sites” (Pharmaceutics, 2023).

In data set [1] the test system is HCT116 colorectal carcinoma cells. In words: MTT cytotoxicity assay, HCT116. Format: cell-based, human. To be noted: 48 h exposure, read-out: IC50 ± SD, HCT116. How it is done: (§1) To characterize the antitumor potential of the resulting Pd(II) pincer complexes, their cytotoxicities against a panel of human solid and hematopoietic cancer cell lines, including colorectal carcinoma (HCT116), breast cancer (MCF7), prostate adenocarcinoma (PC3), glioblastoma (U251), ovarian adenocarcinoma (Scov3), chronic myelogenous leukemia (K562) and its resistant subclone (K562/iS9), multiple plasmacytoma (AMO1), and acute lymphoblastic leukemia (H9) cell lineages, were evaluated using the conventional MTT assay. […] For comparison, the inhibitory effects of the compounds explored on noncancerous human embryonic kidney cells HEK293 as well as transformed breast cells HBL100 and their doxorubicin-resistant analogs HBL100/Dox were also investigated under the same conditions.
(§2) The cytotoxic activity of the compounds explored was investigated on human colorectal carcinoma (HCT116), breast cancer (MCF7), prostate adenocarcinoma (PC3), glioblastoma (U251), ovarian adenocarcinoma (Scov3), chronic myelogenous leukemia (K562 and K562/iS9), multiple plasmacytoma (AMO1), and acute lymphoblastic leukemia (H9) cell lines, as well as human embryonic kidney (HEK293) and mammary epithelial (HBL100 and HBL100/Dox) cells used as representatives of pseudonormal cells. All cell lines were obtained from American Type Culture Collection (ATCC). RPMI-1640 and DMEM media were obtained from Gibco. Fetal bovine serum (FBS) was purchased from HyClone. Cells were cultured in RPMI-1640 or DMEM media supplemented with 10% FBS and 50 μg/mL gentamicin in a humidified incubator with 5% CO2 atmosphere. The cell growth inhibitory effects of the compounds were evaluated using the conventional MTT assay (ICN Biomedicals, Eschwege, Germany). Cells were seeded in triplicate at a cell density of 5 × 10^3/well in 96-well plates in 100 µL complete medium and preincubated for 24 h. The tested compounds were initially dissolved in DMSO. Then, the compounds at various concentrations were added to the media. The well plates were incubated for 48 h followed by addition of MTT solution (Sigma, Darmstadt, Germany) (20 μL, 5 mg/mL). The cells were incubated at 37 °C for further 3 h; then the culture medium was removed, and formazan crystals were dissolved in DMSO (70 μL). The absorbance of the resulting solutions was measured on a multi-well plate reader (Multiskan FC, Thermo scientific) at 530 nm to determine the percentage of surviving cells. The reported values of IC50 are the averages of three independent experiments (Table 2 and Table 3). Cisplatin (in the initial form of an infusion concentrate in natural saline solution) from a commercial source was used as the reference.

For the next data set, the system named is MCF7 breast cancer cells. Nature of the data set: MTT cytotoxicity assay, MCF7. The data set is classed as cell-based, human. To be noted: MCF7, MTT, 48 h exposure; read-out: IC50 ± SD, MCF7. On the procedure: as §1, §2
In general terms: Tetrazolium dyes change colour on reduction, which living cells bring about.

Data set [2] concerns PC3 prostate adenocarcinoma cells. Nature of the data set: MTT cytotoxicity assay, PC3. Format: cell-based, human. To be noted: 48 h exposure, read-out: IC50 ± SD, PC3. How it is done:
as §1, §2

The subject of another data set is U251 glioblastoma cells. Nature of the data set: MTT cytotoxicity assay, U251. The conditions noted are these: 48 h exposure, read-out: IC50 ± SD, U251. Format: cell-based, human. How it is done:
as §1, §2

The test system of data set [3] is Scov3 ovarian adenocarcinoma cells. Nature of the data set: MTT cytotoxicity assay, Scov3. Format: cell-based, human. The conditions noted are these: Scov3, compound concentration 80.0 μM, 48 h. On the procedure: as §1, §2
Data set [4] deals with HEK293 embryonic kidney cells. Nature of the data set: MTT cytotoxicity assay, HEK293. The data set is classed as cell-based, human. The conditions noted are these: HEK293 noncancerous cells, 48 h exposure, read-out: IC50 ± SD, HEK293. How it is done: as §1, §2
Data set [5] has as its system HBL100 mammary epithelial cells. In words: MTT cytotoxicity assay, HBL100. Format: cell-based, human. To be noted: 48 h exposure, read-out: IC50 ± SD, HBL100. How it is done:
as §1, §2

For data set [6], the system named is HBL100/Dox doxorubicin-resistant mammary epithelial cells. In words: MTT cytotoxicity assay, HBL100/Dox. Format: cell-based, human. To be noted: MTT, 48 h exposure, read-out: IC50 ± SD, HBL100/Dox. On the procedure: as §1, §2
In data set [7] the test system is K562 chronic myelogenous leukemia cells. In words: MTT cytotoxicity assay, K562. The data set is classed as cell-based, human. The conditions noted are these: 48 h exposure, read-out: IC50 ± SD, K562. On the procedure:
as §1, §2

The test system of data set [8] is K562/iS9 resistant chronic myelogenous leukemia cells. Nature of the data set: MTT cytotoxicity assay, K562/iS9. Format: cell-based, human. To be noted: 48 h exposure, read-out: IC50 ± SD, K562/iS9. How it is done: as §1, §2
In data set [9] the test system is AMO1 multiple plasmacytoma cells. In words: MTT cytotoxicity assay, AMO1. Format: cell-based, human. The conditions noted are these: AMO1, MTT, 48 h exposure; read-out: IC50 ± SD, AMO1. How it is done:
as §1, §2

Data set [10] deals with H9 acute lymphoblastic leukemia cells. In words: MTT cytotoxicity assay, H9. The data set is classed as cell-based, human. To be noted: 48 h exposure, read-out: IC50 ± SD, H9. How it is done: as §1
as §2, with “Then, the compounds at various concentrations were added to the media. The well plates were incubated for 48 h followed by addition of MTT solution (Sigma, Darmstadt, Germany) (20 μL, 5 mg/mL). The cells were incubated at 37 °C for further 3 h; then the culture medium was removed, and formazan crystals were dissolved in DMSO (70 μL).” left out, “The reported values of IC50 are the averages of three independent experiments (Table 2 and Table 3). Cisplatin (in the initial form of an infusion concentrate in natural saline solution) from a commercial source was used as the reference.” left out

Data set [11] can be described thus: UV-vis stability study in DMSO, DMSO–water and DMSO–PBS. The data set is classed as physicochemical. To be noted: neat DMSO, DMSO–water and DMSO–PBS solutions, over 48 h. On the procedure:
The observed dependences correlate well with our previous findings on the lability of the phosphoryl sites in palladocycles 2a,b, 3a,b and can be rationalized in terms of their coordination behavior. […] However, the presence of an additional competitive chloride anion makes complex 2b potentially more susceptible to decoordination of the phosphoryl arm. […] At least the N,N-bidentately bound core remained intact in the mentioned media over a period of 48 h.
The NMR spectra were recorded on Bruker Avance 400 and Avance 500 spectrometers, and the chemical shifts (δ) were referenced internally by the residual (^1H) or deuterated (^13C) solvent signals relative to tetramethylsilane or externally to H3PO4 (^31P) or liquid ammonia (^15N). The ^15N chemical shifts were extracted from the ^1H–^15N HMBC spectra. In all cases, the ^13C{^1H} NMR spectra were registered using the JMODECHO mode; the signals for the C nuclei bearing odd and even numbers of protons had opposite polarities. The NMR peak assignments for ligand 1a and complexes 2a, 3a,b were based on the analysis of ^1H–^1H COSY, ^1H–^13C HSQC, and ^1H–^13C HMBC spectra. The results obtained were used to assign the NMR spectra of the other compounds obtained in this study. For the NMR spectra of the representative compounds, see Figures S1–S9 (1a), S11–S22 (2a), and S24–S35 (3b) in the Supporting Information. […]

Turning to `O=C(c1ccccn1)[N](CP(=O)(c1ccccc1)c1ccccc1)[Pd][Cl]` [complex 3a, [κ^3-O,N,N-(L)Pd(II)Cl]], the IC50 was 36 ± 2 µM in data set [1]; 45 ± 5 µM in the data set on MCF7 breast cancer cells; 26 ± 6 µM in data set [2]; greater than 80 µM in the data set on U251 glioblastoma cells; 34 ± 3 µM in [4]; greater than 80 µM in data set [5]. In addition, the IC50 is greater than 80 µM in data set [6]; 36 ± 4 µM in data set [7]; 40 ± 4.5 µM in [8]; 32 ± 2 µM in data set [9]; 23 ± 1 µM in [10]. Besides, in data set [3], the “percentage of live cells” value is recorded as 30% ^5. The “stability by UV-vis spectroscopy” value in data set [11] is recorded as “high stability”.
